{
  "source": "patent US20260317319A1",
  "about": "“NOVEL ERGOLINES AND METHODS OF TREATING MOOD DISORDERS” (Gilgamesh Pharma Inc., priority 2023, published 2026)",
  "key": {"5-HT1A receptor": {"target": "T1, 5-HT1A receptor (Homo sapiens, UniProt P08908)", "T1 construct": "expressed in transfected cells; host or cells: CHO cells, stably transfected", "T1 sequence (P08908 1-422)": "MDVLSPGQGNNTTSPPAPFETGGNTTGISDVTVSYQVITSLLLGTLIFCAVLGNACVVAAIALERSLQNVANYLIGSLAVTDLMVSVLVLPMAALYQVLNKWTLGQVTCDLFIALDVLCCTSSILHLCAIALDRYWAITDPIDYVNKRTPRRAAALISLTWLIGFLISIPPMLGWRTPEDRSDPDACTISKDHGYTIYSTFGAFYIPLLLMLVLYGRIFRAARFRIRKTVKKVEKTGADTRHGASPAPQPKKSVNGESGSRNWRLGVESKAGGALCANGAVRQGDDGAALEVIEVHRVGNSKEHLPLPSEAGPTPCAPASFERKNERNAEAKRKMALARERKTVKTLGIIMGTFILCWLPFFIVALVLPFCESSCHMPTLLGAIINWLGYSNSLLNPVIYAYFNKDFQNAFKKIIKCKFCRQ", "assay": "cell-based", "details": "for Emax: CHO, read-out: 5-HT1A % Act @ Max Dose", "summary_of_the_method": "(§1)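 FLIPR Tetra fluorescence read-out of calcium flux after compound addition. Receptor-expressing stable lines were used (HEK293 for 2A/2B; CHO with Gα15 for 1A), dye-loaded with Fluo-4 Direct and 2.5 mM final probenecid, 50 min at 37 °C.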"}, "5-HT2B receptor": {"target": "T2, 5-HT2B receptor (Homo sapiens, UniProt P41595)", "T2 construct": "expressed in transfected cells; host or cells: HEK293, stably transfected", "T2 sequence (P41595 whole entry)": "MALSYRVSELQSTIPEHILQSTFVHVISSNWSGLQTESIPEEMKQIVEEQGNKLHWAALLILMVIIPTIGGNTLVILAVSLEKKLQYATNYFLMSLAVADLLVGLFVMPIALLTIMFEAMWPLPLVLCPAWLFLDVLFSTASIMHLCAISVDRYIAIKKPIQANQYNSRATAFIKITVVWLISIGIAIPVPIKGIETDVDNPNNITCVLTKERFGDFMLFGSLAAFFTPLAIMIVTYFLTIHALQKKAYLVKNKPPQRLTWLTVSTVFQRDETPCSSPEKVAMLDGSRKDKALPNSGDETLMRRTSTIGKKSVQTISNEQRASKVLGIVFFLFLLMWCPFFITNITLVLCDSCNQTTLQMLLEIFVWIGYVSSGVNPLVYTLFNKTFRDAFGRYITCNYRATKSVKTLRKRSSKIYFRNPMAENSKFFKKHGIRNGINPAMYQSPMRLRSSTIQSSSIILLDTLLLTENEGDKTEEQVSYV", "assay": "cell-based", "type": "cell-based", "summary_of_the_method": "as §1"}, "in vitro [1]": {"assay": "in vitro", "type": "in vitro ADME, mouse", "details": "mouse, microsomes", "source_text": "MLM Stability Pooled MLM from male CD-1 mice (BIOIVT M00501) were used."}, "5-HT1B receptor": {"target": "T3, 5-HT1B receptor (Homo sapiens, UniProt P28222)", "T3 construct": "expressed in transfected cells", "T3 sequence (P28222 whole entry)": "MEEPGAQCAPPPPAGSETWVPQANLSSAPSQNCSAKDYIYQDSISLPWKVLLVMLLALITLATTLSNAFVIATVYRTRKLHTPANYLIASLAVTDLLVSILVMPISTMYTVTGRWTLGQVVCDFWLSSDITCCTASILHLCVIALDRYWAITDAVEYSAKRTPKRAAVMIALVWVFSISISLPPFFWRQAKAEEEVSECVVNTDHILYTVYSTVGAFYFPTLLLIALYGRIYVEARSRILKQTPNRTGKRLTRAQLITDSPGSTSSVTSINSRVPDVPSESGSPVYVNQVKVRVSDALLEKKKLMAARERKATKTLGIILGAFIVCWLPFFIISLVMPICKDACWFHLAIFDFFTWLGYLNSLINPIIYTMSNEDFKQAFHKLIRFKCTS", "assay": "cAMP accumulation functional assay at 5-HT1B", "type": "cell-based", "details": "for Emax: read-out: 5-HT1B % Act @ Max Dose", "summary_of_the_method": "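Stably transfected human 5-HT1B cells were incubated 60 min at room temperature, after which detection reagent was applied for another 60 min at RT. The read-out was cAMP accumulation, used as a measure of agonist activity.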"}, "in vitro [2]": {"assay": "in vitro", "type": "in vitro ADME, human", "details": "human, microsomes"}, "5-HT2A receptor [3]": {"target": "T4, 5-HT2A receptor (Homo sapiens, UniProt P28223)", "T4 sequence (P28223 whole entry, the tested form may be a part)": "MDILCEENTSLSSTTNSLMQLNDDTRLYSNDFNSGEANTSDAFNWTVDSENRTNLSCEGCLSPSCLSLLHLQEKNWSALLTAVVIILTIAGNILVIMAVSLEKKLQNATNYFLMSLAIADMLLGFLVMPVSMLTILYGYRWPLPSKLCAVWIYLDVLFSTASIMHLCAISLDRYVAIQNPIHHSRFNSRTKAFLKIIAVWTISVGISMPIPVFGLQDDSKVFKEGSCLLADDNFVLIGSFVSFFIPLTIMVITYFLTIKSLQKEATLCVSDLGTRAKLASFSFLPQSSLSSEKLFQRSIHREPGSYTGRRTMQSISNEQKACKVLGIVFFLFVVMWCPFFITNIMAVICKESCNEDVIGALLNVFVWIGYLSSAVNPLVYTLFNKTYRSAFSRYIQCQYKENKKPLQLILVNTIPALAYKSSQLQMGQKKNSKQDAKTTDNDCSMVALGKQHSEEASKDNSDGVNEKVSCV", "assay": "cell-based", "type": "cell-based", "details": "for Emax: read-out: 5-HT2A Arrestin % Act @ Max Dose", "summary_of_the_method": "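Agonist activity expressed as percent of maximal control ligand signal after vehicle subtraction, from chemiluminescence (RLU). Cells carry ProLink-tagged 5-HT2A plus β-arrestin fused to β-gal deletion mutant; ligand-driven arrestin binding restores β-galactosidase activity (PathHunter). Cells pre-incubated at 37° C.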"}, "in vitro [4]": {"assay": "in vitro", "type": "in vitro ADME, rat", "details": "rat, microsomes", "source_text": "RLM Stability Pooled RLM from male Sprague-Dawley rats (Xenotech R1000) were used."}, "5-HT2A receptor [5]": {"target": "T4, 5-HT2A receptor", "assay": "cell-based", "type": "cell-based", "set-up": "expressed in transfected cells; host or cells: HEK293, stably transfected", "summary_of_the_method": "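Agonism measured as calcium flux on FLIPR Tetra. Receptor lines: HEK293 for 5-HT2A and 5-HT2B, CHO with Gα15 for 5-HT1A; dye loading with Fluo-4 Direct and probenecid (2.5 mM final) ran 50 min at 37 °C before compound addition and signal reading.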"}},
  "note": "Read-outs that look alike come from different tables or passages of the source.",
  "data": [
    {"smiles": "CCN(CC)C(=O)[C@@H]1C=C2c3cccc4[nH]cc(c34)C[C@H]2N(Cc2ccccc2)C1", "note": "[Compound 82, (6aR,9R)-7-benzyl-N,N-diethyl-4,6,6a,7,8,9-hexahydroindolo[4,3-fg]quinoline-9-carboxamide]", "values": [
      {"measurement": "Emax", "setting": "5-HT1A receptor; agonist, Ca2+ flux, CHO cells with Gα15, max dose", "result": 27.8, "unit": "%"},
      {"measurement": "EC50", "setting": "5-HT1A receptor; agonist, Ca2+ flux, CHO cells with Gα15", "result": 3350, "unit": "nM"},
      {"measurement": "Emax", "setting": "5-HT2B receptor; HEK293, agonist, Ca2+ flux, HEK293, max dose, read-out: 5-HT2B % Act @ Max Dose", "result": 13.3, "unit": "%"},
      {"measurement": "EC50", "setting": "5-HT2B receptor; agonist, Ca2+ flux, HEK293", "result": "> 10000", "unit": "nM"},
      {"measurement": "microsomal CLint", "setting": "in vitro [1]; MLM (male CD-1) 0.50 mg/mL, NADPH 1 mM, 1 μM compound, pH 7.4, 37° C., 60 min, read-out: Intrinsic clearance (Clint)", "result": 553, "unit": "µL/min/mg"},
      {"measurement": "half-life", "setting": "in vitro [1]; MLM (male CD-1) 0.50 mg/mL, NADPH 1 mM, 1 μM compound, pH 7.4, 37° C., 60 min, read-out: half-life (t1/2)", "result": 2.5, "unit": "min"},
      {"measurement": "EC50", "setting": "5-HT1B receptor; agonist, cAMP accumulation", "result": 992, "unit": "nM"},
      {"measurement": "Emax", "setting": "5-HT1B receptor; agonist, cAMP accumulation, max dose", "result": 62.8, "unit": "%"},
      {"measurement": "microsomal CLint", "setting": "in vitro [2]; HLM 0.50 mg/mL, NADPH 1 mM, 1 μM compound, pH 7.4, 37° C., 60 min, read-out: Intrinsic clearance (Clint)", "result": 106, "unit": "µL/min/mg"},
      {"measurement": "half-life", "setting": "in vitro [2]; HLM 0.50 mg/mL, NADPH 1 mM, 1 μM compound, pH 7.4, 37° C., 60 min, read-out: half-life (t1/2)", "result": 13, "unit": "min"},
      {"measurement": "EC50", "setting": "5-HT2A receptor [3]; agonist, beta-arrestin recruitment, PathHunter, read-out: 5-HT2A Arrestin EC50", "result": 1.73, "unit": "nM"},
      {"measurement": "Emax", "setting": "5-HT2A receptor [3]; agonist, beta-arrestin recruitment, max dose", "result": 26.1, "unit": "%"},
      {"measurement": "microsomal CLint", "setting": "in vitro [4]; RLM (male Sprague-Dawley) 0.50 mg/mL, NADPH 1 mM, 1 μM compound, pH 7.4, 37° C., 60 min, read-out: Intrinsic clearance (Clint)", "result": 190, "unit": "µL/min/mg"},
      {"measurement": "half-life", "setting": "in vitro [4]; RLM (male Sprague-Dawley) 0.50 mg/mL, NADPH 1 mM, 1 μM compound, pH 7.4, 37° C., 60 min, read-out: half-life (t1/2)", "result": 7.3, "unit": "min"},
      {"measurement": "Emax", "setting": "5-HT2A receptor [5]; HEK293, agonist, Ca2+ flux, HEK293, max dose, read-out: 5-HT2A % Act @ Max Dose", "result": 61.4, "unit": "%"},
      {"measurement": "EC50", "setting": "5-HT2A receptor [5]; agonist, Ca2+ flux, HEK293", "result": 422, "unit": "nM"}
    ]},
    {"smiles": "CCN(CC)C(=O)[C@@H]1C=C2c3cccc4[nH]cc(c34)C[C@H]2N(C)C1", "note": "[LSD, lysergic acid diethylamide, reference compound]", "values": [
      {"measurement": "Emax", "setting": "5-HT1A receptor", "result": 91.4, "unit": "%"},
      {"measurement": "Emax", "setting": "5-HT2B receptor; HEK293, read-out: 5-HT2B % Act @ Max Dose", "result": 19.3, "unit": "%"},
      {"measurement": "half-life (t1/2)", "setting": "in vitro [1]; pH 7.4", "result": 31.3, "unit": "min"},
      {"measurement": "Emax", "setting": "5-HT1B receptor", "result": 98, "unit": "%"},
      {"measurement": "half-life (t1/2)", "setting": "in vitro [2]; pH 7.4", "result": 71.6, "unit": "min"},
      {"measurement": "5-HT2A arrestin agonist class", "setting": "5-HT2A receptor [3]", "result": "partial agonists"},
      {"measurement": "Emax", "setting": "5-HT2A receptor [3]", "result": 52.6, "unit": "%"},
      {"measurement": "half-life (t1/2)", "setting": "in vitro [4]; pH 7.4", "result": 60.2, "unit": "min"},
      {"measurement": "Emax", "setting": "5-HT2A receptor [5]; HEK293, read-out: 5-HT2A % Act @ Max Dose", "result": 108, "unit": "%"}
    ]}
  ]
}
